# From ChEMBL document CHEMBL2177093, “The design and identification of brain penetrant inhibitors of phosphoinositide 3-kinase α” (J Med Chem, 2012)
# The source made the active and inactive calls. The rule behind the calls is not given here.
# Columns and labels:
# mouse Bcrp1 = experiment: in vitro; conditions: dog
# Mus musculus [1] = experiment: Toxicity in PTEN deficient human U87MG cells xenografted in NCr nude mouse assessed as loss in body weight at 50 mg/kg, po qd for 24 days; type: organism-based, U-87MG ATCC; parameters: dose 50 mg/kg, route oral; conditions: in vivo, 576 h
# Mus musculus [2] = experiment: Inhibition of PI3K signaling in CD-1 mouse assessed as reduction in pAKT level at 50 mg/kg, po administered as single dose measured after 6 hrs post dose by immunoblotting method; type: functional; conditions: CD-1, 6 h
# SF-539 = experiment: Cytotoxicity against human SF539 cells incubated for 4 days; type: functional, cell-based; conditions: SF-539, 96 h
# Mus musculus [3] = species on record: Mus musculus; conditions: NCr, U-87MG ATCC, 40 mg/kg
# [4] = Cytotoxicity against human Hs683 cells incubated for 4 days; type: functional, cell-based; conditions: Hs 683, 96 h
# Mus musculus [5] = experiment: Inhibition of PI3K signaling in CD-1 mouse assessed as reduction in pAKT level at 50 mg/kg, po administered as single dose measured after 1 hr post dose by immunoblotting method; type: functional; conditions: CD-1, 1 h
# Mus musculus [6] = species on record: Mus musculus; conditions: NCr, U-87MG ATCC, 10 mg/kg
# [7] = Drug level in CD-1 mouse brain at 50 mg/kg, po administered as single dose measured after 6 hrs post dose; type: ADME, organism-based; parameters: dose 50 mg/kg, route oral; conditions: read-out: Drug uptake
# [8] = Drug uptake in NCr nude mouse brain xenografted with PTEN deficient human U87MG cells at 40 mg/kg after 1 hr; type: ADME, organism-based, U-87MG ATCC; parameters: dose 40 mg/kg; conditions: read-out: Drug uptake
# [9] = Clearance in po dosed CD-1 mouse; type: ADME, organism-based; conditions: in vivo
# Mus musculus [10] = species on record: Mus musculus; conditions: NCr, U-87MG ATCC, 40 mg/kg; remark: listed apart in the source
# [11] = Antitumor activity in PTEN deficient human U87MG cells xenografted in NCr nude mouse assessed as loss in body weight at 40 mg/kg, po after 24 days; type: functional, U-87MG ATCC
# [12] = Drug level in CD-1 mouse brain at 50 mg/kg, po administered as single dose measured after 1 hr post dose; type: ADME, organism-based; parameters: dose 50 mg/kg, route oral; conditions: read-out: Drug uptake
# [13] = Cytotoxicity against human A172 cells incubated for 4 days; type: functional, cell-based; conditions: A 172, 96 h
# M059J = experiment: Cytotoxicity against human M059J cells incubated for 4 days; type: functional, cell-based; conditions: 96 h
# [14] = Toxicity in PTEN deficient human U87MG cells xenografted in NCr nude mouse at dosed orally once daily for 24 days; type: organism-based, U-87MG ATCC; conditions: in vivo, po
# [15] = Plasma protein binding in CD-1 mouse; type: ADME, cell-free; conditions: read-out: PPB (converted)
# SF-268 = experiment: Cytotoxicity against human SF268 cells incubated for 4 days; type: functional, cell-based; conditions: SF-268, 96 h
# Mus musculus [16] = experiment: Toxicity in PTEN deficient human U87MG cells xenografted in NCr nude mouse assessed as loss in body weight at 30 mg/kg, po qd for 24 days; type: organism-based, U-87MG ATCC; parameters: dose 30 mg/kg, route oral; conditions: in vivo, 576 h
# [17] = Cytotoxicity against human LN229 cells incubated for 4 days; type: functional, cell-based; conditions: LN-229, 96 h
# U-87MG ATCC = experiment: Antitumor activity against PTEN deficient human U87MG cells xenografted in NCr nude mouse assessed as inhibition of tumor growth at 3 to 14 mg/kg, po qd for 24 days; type: functional, organism-based
# [18] = molecular target: Phosphatidylinositol 4-phosphate 3-kinase C2 domain-containing subunit beta (Homo sapiens) (UniProt O00750); experiment: Inhibition of PI3KC2beta at 1 uM
# [19] = Oral bioavailability in CD-1 mouse; type: ADME, organism-based; conditions: in vivo
# [20] = Drug uptake in healthy mouse brain at 50 mg/kg after 1 hr; type: ADME, organism-based; parameters: dose 50 mg/kg; conditions: read-out: Drug uptake
# [21] = Cytotoxicity against human U87MG cells incubated for 4 days; type: functional, cell-based, U-87MG ATCC; conditions: U-87 MG, 96 h
# Mus musculus [22] = species on record: Mus musculus; conditions: NCr, U-87MG ATCC, 10 mg/kg; remark: listed apart in the source
# Mus musculus [23] = species on record: Mus musculus; conditions: NCr, U-87MG ATCC, 3 mg/kg
# [24] = Half life in po dosed CD-1 mouse; type: ADME, organism-based; conditions: in vivo
# Mus musculus [25] = species on record: Mus musculus; conditions: NCr, U-87MG ATCC, 3 mg/kg; remark: listed apart in the source
# [26] = Ratio of drug level in brain to plasma in CD-1 mouse at 50 mg/kg, po at 6 hrs; type: ADME, organism-based; parameters: dose 50 mg/kg, route oral; conditions: read-out: BPR
# [27] = Ratio of drug level in brain to plasma in CD-1 mouse at 50 mg/kg, po at 1 hr; type: ADME, organism-based; parameters: dose 50 mg/kg, route oral; conditions: read-out: BPR
# in vitro = conditions: human, liver microsomes
# [28] = molecular target: Phosphatidylinositol 4,5-bisphosphate 3-kinase catalytic subunit alpha isoform (Homo sapiens, UniProt P42336); experiment: Inhibition of PI3Kalpha assessed as reduction in PIP3 formation after 30 mins by fluorescence polarization assay
# PC-3 = experiment: Antiproliferative activity against human PC3 cells incubated for 3 days; type: functional, cell-based; conditions: PC-3, 72 h
# Mus musculus [29] = experiment: Inhibition of PI3K signaling in CD-1 mouse assessed as reduction in pAKT level at 25 mg/kg, po administered as single dose measured after 1 hr post dose by immunoblotting method; type: functional; conditions: CD-1, 1 h
# [30] = Ratio of drug level in brain to plasma in CD-1 mouse at 25 mg/kg, po at 1 hr; type: ADME, organism-based; parameters: dose 25 mg/kg, route oral; conditions: read-out: BPR
# Mus musculus [31] = experiment: Toxicity in PTEN deficient human U87MG cells xenografted in NCr nude mouse assessed as loss in body weight at 18 mg/kg, po qd for 24 days; type: organism-based, U-87MG ATCC; parameters: dose 18 mg/kg, route oral; conditions: in vivo, 576 h
# [32] = Drug level in CD-1 mouse brain at 25 mg/kg, po administered as single dose measured after 1 hr post dose; type: ADME, organism-based; parameters: dose 25 mg/kg, route oral; conditions: read-out: Drug uptake
# [33] = Drug level in CD-1 mouse brain at 25 mg/kg, po administered as single dose measured after 6 hrs post dose; type: ADME, organism-based; parameters: dose 25 mg/kg, route oral; conditions: read-out: Drug uptake
# [34] = Ratio of drug level in brain to plasma in CD-1 mouse at 25 mg/kg, po at 6 hrs; type: ADME, organism-based; parameters: dose 25 mg/kg, route oral; conditions: read-out: BPR
# Mus musculus [35] = experiment: Toxicity in PTEN deficient human U87MG cells xenografted in NCr nude mouse assessed as loss in body weight at 6 mg/kg, po qd for 24 days; type: organism-based, U-87MG ATCC; parameters: dose 6 mg/kg, route oral; conditions: in vivo, 576 h
# Mus musculus [36] = experiment: Toxicity in PTEN deficient human U87MG cells xenografted in NCr nude mouse assessed as loss in body weight at 14 mg/kg, po qd for 24 days; type: organism-based, U-87MG ATCC; parameters: dose 14 mg/kg, route oral; conditions: in vivo, 576 h
# [37] = Clearance in rat; type: ADME, organism-based; conditions: in vivo
# [38] = molecular target: Serine/threonine-protein kinase mTOR (Homo sapiens, UniProt P42345); experiment: Inhibition of human recombinant mTOR (1360 to 2549 amino acids) assessed as reduction in phosphorylation of (GFP)-4-EBP1 after 30 mins by FRET assay; conditions: read-out: Ki(app)
# Chain of Phosphatidylinositol 4,5-bisphosphate 3-kinase catalytic subunit alpha isoform (P42336 whole entry, canonical isoform): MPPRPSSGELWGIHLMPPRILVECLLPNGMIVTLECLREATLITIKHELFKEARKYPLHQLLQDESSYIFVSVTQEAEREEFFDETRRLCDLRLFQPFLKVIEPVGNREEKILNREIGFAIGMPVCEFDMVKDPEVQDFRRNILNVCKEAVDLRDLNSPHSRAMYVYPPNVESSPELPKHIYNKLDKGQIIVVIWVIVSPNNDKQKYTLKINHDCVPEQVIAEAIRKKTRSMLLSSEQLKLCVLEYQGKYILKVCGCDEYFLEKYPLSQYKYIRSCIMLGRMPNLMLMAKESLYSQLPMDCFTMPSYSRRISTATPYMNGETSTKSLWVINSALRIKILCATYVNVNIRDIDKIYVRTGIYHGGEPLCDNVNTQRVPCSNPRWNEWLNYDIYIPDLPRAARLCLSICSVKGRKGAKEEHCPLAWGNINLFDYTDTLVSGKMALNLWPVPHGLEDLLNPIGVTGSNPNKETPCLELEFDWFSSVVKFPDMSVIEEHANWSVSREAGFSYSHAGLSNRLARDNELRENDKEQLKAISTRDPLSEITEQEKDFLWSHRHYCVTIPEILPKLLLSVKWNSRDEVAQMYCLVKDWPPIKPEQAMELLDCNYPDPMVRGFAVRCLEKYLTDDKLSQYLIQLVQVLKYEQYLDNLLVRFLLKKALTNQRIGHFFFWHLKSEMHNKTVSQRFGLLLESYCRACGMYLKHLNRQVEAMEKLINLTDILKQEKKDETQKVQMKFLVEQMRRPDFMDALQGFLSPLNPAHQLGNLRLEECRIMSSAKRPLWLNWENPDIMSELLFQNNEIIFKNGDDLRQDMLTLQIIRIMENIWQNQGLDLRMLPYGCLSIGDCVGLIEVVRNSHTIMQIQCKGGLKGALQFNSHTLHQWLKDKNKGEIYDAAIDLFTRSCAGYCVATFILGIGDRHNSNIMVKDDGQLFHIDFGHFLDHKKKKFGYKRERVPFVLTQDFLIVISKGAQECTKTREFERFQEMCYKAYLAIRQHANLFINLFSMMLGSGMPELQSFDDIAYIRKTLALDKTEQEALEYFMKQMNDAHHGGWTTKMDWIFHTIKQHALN
# Chain of Phosphatidylinositol 4-phosphate 3-kinase C2 domain-containing subunit beta (Homo sapiens) (O00750 whole entry, the tested form may be a part): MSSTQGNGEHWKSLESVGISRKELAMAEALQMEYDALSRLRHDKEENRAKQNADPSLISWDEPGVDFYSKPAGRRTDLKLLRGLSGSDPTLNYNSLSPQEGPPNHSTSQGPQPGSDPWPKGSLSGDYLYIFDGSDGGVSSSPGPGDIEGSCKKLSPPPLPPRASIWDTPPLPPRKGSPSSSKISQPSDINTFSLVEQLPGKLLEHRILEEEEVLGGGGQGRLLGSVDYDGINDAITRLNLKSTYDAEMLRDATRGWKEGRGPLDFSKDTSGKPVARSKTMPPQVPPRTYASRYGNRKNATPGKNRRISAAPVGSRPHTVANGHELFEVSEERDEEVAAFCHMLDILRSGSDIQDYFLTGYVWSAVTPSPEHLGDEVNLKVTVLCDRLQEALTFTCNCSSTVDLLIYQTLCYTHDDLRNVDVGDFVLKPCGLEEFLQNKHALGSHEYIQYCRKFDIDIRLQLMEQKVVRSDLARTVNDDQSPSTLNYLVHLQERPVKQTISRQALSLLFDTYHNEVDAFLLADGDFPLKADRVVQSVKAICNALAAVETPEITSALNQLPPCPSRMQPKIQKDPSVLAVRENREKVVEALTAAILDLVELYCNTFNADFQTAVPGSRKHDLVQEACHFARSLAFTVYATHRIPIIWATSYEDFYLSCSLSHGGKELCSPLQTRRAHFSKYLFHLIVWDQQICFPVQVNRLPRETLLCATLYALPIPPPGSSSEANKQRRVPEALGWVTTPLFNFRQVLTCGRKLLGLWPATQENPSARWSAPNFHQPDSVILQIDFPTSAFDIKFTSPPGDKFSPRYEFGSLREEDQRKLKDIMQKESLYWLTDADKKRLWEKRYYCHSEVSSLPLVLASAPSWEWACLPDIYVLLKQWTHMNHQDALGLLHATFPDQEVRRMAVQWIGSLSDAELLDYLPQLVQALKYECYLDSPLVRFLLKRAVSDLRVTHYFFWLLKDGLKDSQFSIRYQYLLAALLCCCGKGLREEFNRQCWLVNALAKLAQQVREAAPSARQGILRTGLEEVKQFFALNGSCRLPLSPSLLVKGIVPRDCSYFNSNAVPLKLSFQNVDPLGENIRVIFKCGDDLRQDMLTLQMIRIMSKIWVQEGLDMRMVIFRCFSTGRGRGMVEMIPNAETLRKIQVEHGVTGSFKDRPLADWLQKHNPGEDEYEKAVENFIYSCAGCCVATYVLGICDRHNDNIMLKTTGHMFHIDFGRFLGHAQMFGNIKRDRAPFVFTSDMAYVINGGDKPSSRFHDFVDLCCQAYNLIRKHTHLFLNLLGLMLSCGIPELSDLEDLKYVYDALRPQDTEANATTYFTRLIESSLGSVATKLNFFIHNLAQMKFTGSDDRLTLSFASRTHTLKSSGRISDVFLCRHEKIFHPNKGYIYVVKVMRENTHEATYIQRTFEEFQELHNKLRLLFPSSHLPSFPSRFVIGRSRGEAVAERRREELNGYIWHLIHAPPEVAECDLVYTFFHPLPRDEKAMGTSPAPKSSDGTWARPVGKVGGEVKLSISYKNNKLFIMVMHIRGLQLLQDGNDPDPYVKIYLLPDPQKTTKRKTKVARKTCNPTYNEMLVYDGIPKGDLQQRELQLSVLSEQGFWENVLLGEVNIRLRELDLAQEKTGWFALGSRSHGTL
smiles,measurement,setting,value
Nc1ncc(-c2nc(N3CCOCC3)c3sc(C4CNC4)cc3n2)cn1,"efflux ratio at 2 h, 5 µM",mouse Bcrp1,22
COC1(c2sc3c(N4CCOCC4)nc(-c4cnc(N)nc4)nc3c2C)COC1,Activity,Mus musculus [1],> 15%
same,inhibition in vivo at 50 mg/kg,Mus musculus [2],31%
same,EC50,SF-539,250 nM
same,inhibition,Mus musculus [3],Active
same,EC50,[4],230 nM
same,inhibition in vivo at 50 mg/kg,Mus musculus [5],62%
same,inhibition,Mus musculus [6],Active
same,concentration at 6 h,[7],2310 nM
same,concentration at 1 h,[8],2200 nM
same,CL/F,[9],32 mL/min/kg
same,inhibition,Mus musculus [10],Active
same,Activity,[11],<15%
same,concentration at 1 h,[12],3.64 µM
same,EC50,[13],240 nM
same,EC50,M059J,330 nM
same,MTD at 576 h,[14],40 mg/kg
same,fraction unbound,[15],0.15
same,EC50,SF-268,570 nM
same,Activity,Mus musculus [16],Non-toxic
same,EC50,[17],140 nM
same,TGI,U-87MG ATCC,Dose-dependent effect
same,inhibition,[18],77%
same,bioavailability,[19],75%
same,concentration at 1 h,[20],3.6 µM
same,EC50,[21],250 nM
same,inhibition,Mus musculus [22],Active
same,inhibition,Mus musculus [23],Active
same,half-life,[24],1020 min
same,inhibition,Mus musculus [25],Active
same,Kp at 6 h,[26],1
same,Kp at 1 h,[27],1
c1cc(-c2nc(N3CCOCC3)c3sccc3n2)c2cn[nH]c2c1,CLhep predicted,in vitro,16 mL/min/kg
same,IC50,[28],36 nM
same,EC50,PC-3,3600 nM
same,"efflux ratio at 2 h, 5 µM",mouse Bcrp1,1
COC(C)(C)c1cc2nc(-c3cnc(N)nc3)nc(N3CCOCC3)c2s1,EC50,SF-539,340 nM
same,inhibition,Mus musculus [3],Active
same,EC50,[4],270 nM
same,inhibition,Mus musculus [6],Active
same,inhibition in vivo at 25 mg/kg,Mus musculus [29],39%
same,Kp at 1 h,[30],1
same,Activity,Mus musculus [31],Toxic
same,CL/F,[9],20 mL/min/kg
same,inhibition,Mus musculus [10],Active
same,EC50,[13],380 nM
same,EC50,M059J,590 nM
same,MTD at 576 h,[14],14 mg/kg
same,fraction unbound,[15],0.102
same,concentration at 1 h,[32],2140 nM
same,EC50,SF-268,1000 nM
same,concentration at 6 h,[33],350 nM
same,EC50,[17],400 nM
same,TGI,U-87MG ATCC,Dose-dependent effect
same,Kp at 6 h,[34],0.9
same,Activity,Mus musculus [35],Non-toxic
same,bioavailability,[19],25%
same,EC50,[21],290 nM
same,inhibition,Mus musculus [22],Active
same,inhibition,Mus musculus [23],Active
same,half-life,[24],1200 min
same,Activity,Mus musculus [36],< 15%
same,inhibition,Mus musculus [25],Active
Cc1csc2c(N3CCOCC3)nc(-c3cnc(N)nc3)nc12,CLhep predicted,in vitro,11 mL/min/kg
same,clearance,[37],238 mL/min/kg
same,IC50,[28],9 nM
same,EC50,PC-3,364 nM
same,"efflux ratio at 2 h, 5 µM",mouse Bcrp1,1
CC(=O)N1CC(c2cc3nc(-c4cnc(N)nc4)nc(N4CCOCC4)c3s2)C1,"efflux ratio at 2 h, 5 µM",mouse Bcrp1,43
CC1(C)COC1c1cc2nc(-c3cnc(N)nc3)nc(N3CCOCC3)c2s1 (configuration not stated),Kp at 1 h,[30],0.9
same,CL/F,[9],52 mL/min/kg
same,Ki,[38],21 nM
same,fraction unbound,[15],0.087
same,Kp at 6 h,[34],1.2
same,bioavailability,[19],46%
same,half-life,[24],198 min
same,"efflux ratio at 2 h, 5 µM",mouse Bcrp1,1.2
